The test concerns the target T1, Alpha-1A adrenergic receptor (Canis lupus familiaris, UniProt O77621).
T1 sequence (O77621 whole entry): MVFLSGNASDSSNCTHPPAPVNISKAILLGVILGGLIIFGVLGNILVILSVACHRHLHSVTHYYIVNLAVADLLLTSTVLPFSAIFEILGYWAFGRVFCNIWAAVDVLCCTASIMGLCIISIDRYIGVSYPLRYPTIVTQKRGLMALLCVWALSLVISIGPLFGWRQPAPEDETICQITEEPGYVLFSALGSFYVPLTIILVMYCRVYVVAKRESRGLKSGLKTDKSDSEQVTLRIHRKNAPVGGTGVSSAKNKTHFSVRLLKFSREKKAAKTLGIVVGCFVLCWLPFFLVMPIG

Several values for one entry are separate records, joined by “and”; a condition that tells them apart may be missing. Equal values may be shown once.

By Ki is commonly meant a dissociation constant, usually derived from enzyme kinetics or from competition with a known ligand. Low values mean higher affinity, high ones lower affinity.

Take `NCC(O)c1ccc(O)c(O)c1` (stereo not drawn) [Noradrenaline,(+)]: the inhibition constant (Ki) was 178 nM and 67 nM.

For `Cc1cc(C(C)(C)C)c(O)c(C)c1CC1=NCCN1` [SMR000059324], the inhibition constant Ki is 33 nM and 9 nM.

With `COc1cc2nc(N3CCN(C(=O)c4ccco4)CC3)nc(N)c2cc1OC` [[3H]-Minipress], the inhibition constant Ki is 0.02 nM and 0.01 nM.

Consider `Cc1ccc(N(CC2=NCCN2)c2cccc(O)c2)cc1` [SMR000059054], for which the Ki was 2.55 nM and 1.27 nM.

In the case of `CNC[C@H](O)c1cccc(O)c1` [PHENYLEPHRINE], the Ki was 901 nM and 213 nM.

Regarding `COC(=O)[C@@H]1[C@H]2C[C@H]3c4[nH]c5ccccc5c4CCN3C[C@@H]2CC[C@@H]1O` [yohimbic acid methyl ester], the Ki is 32 nM and 13.4 nM.

Consider `CNCC(O)c1ccc(O)c(O)c1` (stereo not drawn) [EPINEPHRINE], for which the Ki is 110 nM and 30 nM.

For the compound `Clc1cccc(Cl)c1N=C1NCCN1` [2-(2,6-dichloroanilino)-2-imidazoline], the inhibition constant Ki was determined as 37 nM.

Values taken from BindingDB's records for PubMed 2885412 (Unwersity of Misscuri, 1987).
